# Laboratory results from patent publication US10265276B2, “Pharmaceutical composition for preventing or treating arthritis or inflammatory disease containing 2-methoxy-4-(3-(4-methoxyphenyl)propyl-1-en-1-yl)phenol as active ingredient” (CHUNGBUK NATIONAL UNIVERSITY INDUSTRY-ACADEMIC COOPERATION …, priority 2015, dated 2019).
# System: CAIA-induced C57BL/6 mice
# Assay: Collagen antibody-induced arthritis (CAIA) model
# Assay type: in vivo, mouse
# Settings: 5 mg/kg, p.o. daily
# Method: 14. Induction of rheumatoid arthritis in C57BL/6 mice: To induce rheumatoid arthritis, anti-collagen-II mAbs (CII-Ab, Arthrogen-CIA Arthritogenic Monoclonal Antibody, #53010: Chondrex, Inc., WA, USA) were intraperitoneally (i.p.) injected into 7-week-old male mice on the first day, and 50 μg of LPS was injected on the third day. To evaluate the severity of arthritis, a scoring system was applied according to the criteria.
# 0. No erythema and swelling are observed.
# 1. Slight erythema is observed in tarsals and ankle joints.
# 2. Slight erythema and swelling are observed from an ankle joint to the midfoot.
# 3. Erythema and swelling extending from ankle joints to the metatarsals are observed.
# 4. Erythema and severe swelling were observed throughout the ankles, feet, and fingers.
# The sum of final scores was recorded daily until the sum reached 16. On the 18th day, each of the mice was anesthetized, and then located on a radiographic view box. Thereafter, a location of each of the mice was adjusted so that the mouse was disposed at a distance of 90 cm from an X-ray source. The radioanalysis on hind legs with arthritis was performed by irradiating the hind legs at […] for 0.01 seconds using an X-ray machine (BLD-150RK, Hradec Kralove, Czech Republic).
# 15. Immunohistochemical assay: An immunohistochemical assay was carried out using an avidin-biotin-peroxidase method known in the art. Each of joint tissue samples collected from the mice was fixed with formalin, and embedded in paraffin. These samples were continuously microtomed into sections with a thickness of 4 μm. Each of the sections was stained with haematoxylin/eosin (H&E), anti-COX-2 and anti-iNOS antibodies (Caymen Chemical, Ann Arbor, Mich.).
# Referring to FIG. 10(A), MMPP (5 mg/kg, p.o.) (dissolved in 100 μL of PBS including 0.5 μL of DMSO), a vehicle (a negative control), or indomethacin (5 mg/kg, p.o./dissolved in […] of PBS after the dissolution) was administered daily to 7-week-old male C57BL/6 mice for 18 days.
smiles,measurement,value
"COc1ccc2c(c1)c(CC(=O)O)c(C)n2C(=O)c1ccc(Cl)cc1 [indomethacin, reference compound]",clinical score lower than that of the CAIA group,64.8%
